Source: patent US9097722B2, “PARP substrates and biomarkers” (Board of Regents, The University of Texas System, priority 2012, dated 2015)
“Also recorded” adds a separate entry of the source.

What was measured:
[1] = test system: PARP; assay: Immunoblotting of protein PARylation in cells after MNNG or H2O2 treatment; assay type: cell-based, human; details: for H2O2-induced PARP activation (immunoblotting): 1 μM treatment
Excerpt: We sought to develop an approach towards a global characterization of Asp/Glu-ADP-ribosylation. […] The major cellular enzymatic activity for degrading PAR is from poly-ADP-ribose glycohydrolase (PARG)^2.
Cells and Reagents: HCT116 and HEK293T cells were purchased from ATCC and were maintained in Dulbecco's modified Eagle's medium (DMEM) supplemented with 10% fetal bovine serum. PARP inhibitors were purchased from Selleck. […] Other chemicals and reagents were obtained from Sigma unless indicated otherwise.
Immunoblotting analysis: Samples were subjected to electrophoresis using the standard SDS-PAGE method. Proteins were transferred to a nitrocellulose membrane (Whatman). Membranes were blocked with a TBST buffer (25 mM Tris-HCl, pH 7.5, 150 mM NaCl, 0.05% Tween 20) containing 3% nonfat dried milk, and probed overnight with primary antibodies at 4° C. and for 1 h at RT with peroxidase-conjugated secondary antibodies. Blots were developed using enhanced chemiluminescence, exposed on autoradiograph film and developed using standard methods.

[2] = test system: PARP; assay: SILAC quantitative mass spectrometric analysis of the Asp/Glu-ADP-ribosylated proteome in HCT116 shPARG cells; assay type: cell-based, human; details: for change in protein Asp/Glu-ADP-ribosylation compared with that of Olaparib: 1 μM
Experimental: SILAC cell culture: Cells (HCT116 shPARG) were grown in the SILAC media as described previously^23. Both light and heavy DMEM were supplemented with 10% dialyzed FBS (Invitrogen). Where indicated, cells were pretreated with 1 μM Olaparib for 40 min and were stimulated with 2 mM H2O2 for 5 min We performed two experiments using this experimental design with single labeling with Lys (sample digested with Lys-C) or double labeling with Lys and Arg (sample digested with trypsin). Each experiment was composed of two technical replicate analyses. The same experiment (Lys labeling only) was repeated for four other PARP inhibitors, including A966492 (1 μM), AG14361 (1 μM), Iniparib (50 μM) and 3-AB (50 μM).
Sample preparation for mass spectrometric analysis: Cells were lysed in SDS lysis buffer (1% SDS, 10 mM HEPES pH 7.0, 2 mM MgCl2, 500 U Benzonase). Lysates were washed with SDS lysis buffer for three times using centricon ultrafiltration units (MWCO=10,000 Da, Millipore). Lysates were reduced by adding DTT to a final concentration of 3 mM, followed by incubation at room temperature for 20 min Cysteines were alkylated by adding iodoacetamide to a final concentration of 50 mM, followed by incubation in the dark for 20 min Lysates were digested with LysC (Wako) or trypsin (Promega) at a 1:100 (enzyme:substrate) ratio for 2 hrs at RT. pH of the lysates were adjusted to 8.5 and the lysates were incubated with m-aminophenylborinic acid agarose for 1 hr at RT. Beads were washed with the SDS wash buffer (1% SDS, 100 mM HEPES pH 8.5, 150 mM NaCl) for three times, and then the wash buffer (100 mM HEPES pH 8.5, 150 mM NaCl) for five times. Beads were incubated with 0.5 M NH2OH overnight. Released peptides were desalted on SepPak C18 columns (Waters) according to manufacturer's instructions.
Mass spectrometry analysis and data processing: Samples were analyzed by LC-MS/MS on an LTQ-Velos Pro Orbitrap mass spectrometer (Thermo Fischer Scientific, San Jose, Calif.) using a top twenty method^23. MS/MS spectra were searched against a composite database of the human IPI protein database and its reversed complement using the Sequest algorithm. Search parameters allowed for a static modification of 57.02146 Da for Cys and a dynamic modification of addition of 15.0109 Da to Asp and Glu, and, when applicable, the stable isotope (10.00827 Da) and (8.01420 Da) on Arg and Lys, respectively. […] Localization of ADP-ribosylation sites was assessed by the ModScore algorithm based on the observation of site-specific fragment ions^25. Sites with scores≧13 (p≦0.05) were considered localized. Peptide quantification was performed as previously described^23 and ADP-ribosylation motifs were extracted using the Motif-X algorithm using a significance threshold of P<0.001^26.

[3] = test system: tankyrase; details: cited from earlier work
[4] = 1 μM Olaparib, 2 mM H2O2, HCT116 shPARG

SMILES: NC(=O)c1cccc2[nH]c(-c3ccc([C@@H]4CCCN4)cc3F)nc12 [A96692]
- H2O2-induced PARP activation (immunoblotting) [1]: potently inhibited
- change in protein Asp/Glu-ADP-ribosylation compared with that of Olaparib [2]: correlated well

SMILES: CN(C)Cc1ccc(-c2nc3cccc4c3n2CCNC4=O)cc1 [AG14361]
- H2O2-induced PARP activation (immunoblotting) [1]: potently inhibited
- change in protein Asp/Glu-ADP-ribosylation compared with that of Olaparib [2]: correlated well

SMILES: NC(=O)c1ccc(I)c([N+](=O)[O-])c1 [Iniparib]
- H2O2-induced hyper-PARylation / PARP activity (immunoblotting) ([1]; 50 μM): little effect
- change in ADP-ribosylation level of most of the identified peptides ([2]; Iniparib 50 μM): less than two fold
- decrease of a peptide from the RNA helicase DDX21 ([2]; Iniparib 50 μM): about 4 fold
- effect on PARP activity in intact cells ([2]; Iniparib 50 μM): negligible effect; also recorded: failed to inhibit PARP
- potency relative to 3-AB ([2]; Iniparib 50 μM, 3-AB 50 μM): lower than the prototype PARP inhibitor 3-AB

SMILES: O=C(c1cc(Cc2n[nH]c(=O)c3ccccc23)ccc1F)N1CCN(C(=O)C2CC2)CC1 [Olaparib]
- increased PARylation after MNNG or H2O2 treatment ([1]; PARG-depleted cells, pretreatment with the inhibitor): blocked
- decrease of a peptide from the RNA helicase DDX21 ([2]; 1 μM Olaparib): more than 11 fold
- modified peptides whose intensity decreased by more than two-fold ([2]; 1 μM Olaparib 40 min pretreatment, 2 mM H2O2 5 min, HCT116 shPARG): more than 81%
- ADP-ribosylation of two evolutionarily conserved Glu residues on PCNA [2, 4]: dramatically decreased
- ADP-ribosylation of two tankyrase substrates, CASC3 and BLZF1 [2, 4]: little change
- decrease in level of PARP1 automodified peptide comprising E483 [2, 4]: approximately 120 fold
- sensitivity of the majority of PARylation events to treatment ([2]; quantitative mass spectrometric analysis): sensitive
- inhibition of tankyrase [3]: does not inhibit
